Source: patent publication US7745424B2, “Alkane diol derivatives as therapeutic agents for the treatment of bone conditions” (The Univeristy Court of the University of Aberdeen, priority 2001, dated 2010)

What was measured:
[1] = system: macrophage cell line J774; assay: MTT macrophage J774 viability assay; assay type: cell-based; details: for IC50: Mus musculus, macrophage J774 viability; for IC50 / macrophage J774 viability, activity in words: MTT assay; for macrophage J774 viability, activity in words: range of concentrations (FIGS. 4-7)
Procedure: MTT (3-(4,5-dimethylthiazol-2-yl)-2,5-diphenyl tetrazolium bromide) has an […] colour and is soluble in the medium used for cell culture. The mitochondrial enzyme succinate dehydrogenase acts upon MTT in living cells to produce the insoluble purple coloured formazan. The amount of formazan produced, as measured by UV/visible spectroscopy, is proportional to the number of viable cells.
The medium was carefully removed using a needle without dislodging the crystal layer. 100 μL acidified isopropanol (4 M HCl 1:100 v/v in isopropanol) was added to each well and the purple crystals allowed to dissolve. The absorbance was measured in a plate reader at 540 nm, with 690 nm as reference. The controls were a deep purple colour, indicating a high number of live cells.
Addition of Compounds. […] These stock solutions were then diluted 100× in culture medium.

[2] = system: macrophage cell line J774; assay: Alamar Blue macrophage J774 viability assay; details: Mus musculus, J774, 72 h, read-out: IC50 (μM) Alamar Blue

**Q.** For `CCCCOC(=O)C(C)c1ccc(CC(C)C)cc1` (stereo not drawn) [ABD-0035, Butyl [2-(4-isobutylphenyl)Propionic acid] ester], which IC50 [1] is on record?
**A.** 72 µM

**Q.** With `O=C(OCC(F)(F)C(F)(F)CO)c1ccc(-c2ccccc2)cc1` [ABD-0095, 2,2,3,3-Tetrafluoro-butane-1,4-diol mono(biphenyl-4-carboxylic acid)Ester] as the molecule, how does the IC50 [2] read?
**A.** 40 µM

**Q.** `O=C(O)c1ccc(-c2ccccc2)cc1` [biphenylcarboxylic acid, reference compound] was tested. Which “macrophage J774 viability, activity in words” value (shortened to “macrophage J774 viability”) [1] did it give?
**A.** not active

**Q.** `O=C(OCCCCO)c1ccc(-c2ccc(Br)cc2)cc1` [ABD-0102, 1,4-Butanediol mono(4′-bromo-biphenyl-4-carboxylic acid)Ester] was tested. Which IC50 [2] did it give?
**A.** 14 µM

**Q.** Which IC50 [1] does the source give for `O=C(OCCCCOC(=O)c1ccccc1)c1ccccc1` [ABD-0009, 1,4-Butanediol di(benzoic acid)Ester] here?
**A.** > 100 µM

**Q.** With `O=C(Cc1ccccc1)OCCCCCCOC(=O)Cc1ccccc1` [ABD-0017, 1,6-Hexanediol di(phenylacetic acid)Ester] as the molecule, how does the IC50 [1] read?
**A.** > 100 µM

**Q.** How did the IC50 [1] turn out when `CCCCOC(=O)Cc1ccc(-c2ccccc2)cc1` [ABD-0040, Butyl (biphenyl-4-yl-acetic acid) ester] was run?
**A.** > 100 µM

**Q.** For `O=C(OCCCCO[N+](=O)[O-])c1ccc(-c2ccccc2)cc1` [ABD-0087, 4-Nitrooxybutyl (biphenyl-4-carboxylic acid) ester], which IC50 [2] is on record?
**A.** 30 µM

**Q.** `CC(C)Cc1ccc(C(C)C(=O)OCCCCCCO)cc1` (stereo not drawn) [ABD-0039, 1,6-Hexanediol mono[2-(4-isobutylphenyl)Propionic acid]ester] was tested. Which IC50 [1] did it give?
**A.** 72 µM

**Q.** `CCc1ccc(-c2ccc(C(=O)OCCCCO)cc2)cc1` [ABD-0094, 1,4-Butanediol mono(4′-ethyl-biphenyl-4-carboxylic acid)Ester] was tested. Which IC50 [2] did it give?
**A.** > 100 µM

**Q.** `CC(C)Cc1ccc(C(C)C(=O)OCCCO)cc1` (stereo not drawn) [ABD-0037, 1,3-Propanediol mono[2-(4-isobutylphenyl)Propionic acid]ester] was tested. Which IC50 [1] did it give?
**A.** 72 µM

**Q.** Which results are given for `CC(C)Cc1ccc(C(C)C(=O)OCCCCO)cc1` (stereo not drawn) [ABD-0036, 1,4-Butanediol mono[2-(4-isobutylphenyl)Propionic acid]ester]?
**A.** macrophage J774 viability, activity in words [1]: most active; IC50 [1]: 52 µM

**Q.** Which IC50 [2] does the source give for `O=C(OCCCCO)c1ccc(I)cc1` [ABD-0069, 1,4-Butanediol mono(4-iodobenzoic acid)Ester] here?
**A.** 90 µM

**Q.** For `O=C(OCCCCO)c1ccc(F)cc1F` [ABD-0110, 1,4-Butanediol mono(2,4-difluorobenzoic acid)Ester], which IC50 [2] is on record?
**A.** > 100 µM

**Q.** `O=C(Cc1cccc2ccccc12)OCCCCO` [ABD-0032, 1,4-Butanediol mono(naphth-1-yl-acetic acid)Ester] was tested. Which “activity at 100 μM concentration” value [1] did it give?
**A.** little activity

**Q.** And the IC50 [1]?
**A.** > 100 µM

**Q.** `O=C(OCCCCCO)C(c1ccccc1)(c1ccccc1)c1ccccc1` [ABD-0030, 1,5-Pentandiol mono(triphenylacetic acid)Ester] was tested. Which IC50 [1] did it give?
**A.** 40 µM

**Q.** For `CC(=O)OCCCCOC(=O)c1ccc(-c2ccccc2)cc1` [ABD-0049, Biphenyl-4-carboxylic acid (4-acetoxy)butyl ester], which IC50 [2] is on record?
**A.** 50 µM

**Q.** How did the IC50 [1] turn out when `O=C(Cc1ccc(-c2ccccc2)cc1)OCCCCCO` [ABD-0043, 1,5-Pentanediol mono(biphenyl-4-yl-acetic acid)Ester] was run?
**A.** > 100 µM

**Q.** How did the IC50 [2] turn out when `O=C(OCCCCO)c1cc(F)c(F)cc1F` [ABD-0109, 1,4-Butanediol mono(2,4,5-trifluorobenzoic acid)Ester] was run?
**A.** > 100 µM

**Q.** `CC(=O)OCCCCOC(C)=O` [ABD-0006, 1,4-Butanediol di(acetic acid)Ester] was tested. Which IC50 [1] did it give?
**A.** > 100 µM

**Q.** Which results are given for `CCCCOC(=O)c1ccc(-c2ccccc2)cc1` [ABD-0053, Butyl (biphenyl-4-carboxylic acid) ester]?
**A.** macrophage J774 viability, activity in words [1]: very little activity; IC50 [1]: > 100 µM

**Q.** `O=C(OCCCCO)c1ccc(F)c(F)c1F` [ABD-0108, 1,4-Butanediol mono(2,3,4-trifluorobenzoic acid)Ester] was tested. Which IC50 [2] did it give?
**A.** > 100 µM

**Q.** Which IC50 [1] does the source give for `O=C(OCCCCO)c1ccccc1` [ABD-0008, 1,4-Butanediol mono(benzoic acid)Ester] here?
**A.** > 100 µM

**Q.** `O=C(OCCCCO)c1ccccc1-c1ccccc1` [ABD-0059, 1,4-Butanediol (biphenyl-2-carboxylic acid) ester] was tested. Which “activity at 100 μM concentration” value [1] did it give?
**A.** little activity

**Q.** And the IC50 [1]?
**A.** > 100 µM

**Q.** With `O=C(OCCCCO)c1c(F)ccc(F)c1F` [ABD-0106, 1,4-Butanediol mono(2,3,6-trifluorobenzoic acid)Ester] as the molecule, how does the IC50 [2] read?
**A.** > 100 µM

**Q.** What does the source list for `O=C(Cc1ccc(-c2ccccc2)cc1)OCCCCO` [ABD-0042, 1,4-Butanediol mono(biphenyl-4-yl-acetic acid)Ester]?
**A.** macrophage J774 viability, activity in words [1]: very active; IC50 [1]: 45 µM; IC50 [2]: 45 µM

**Q.** For `CCCCCOC(=O)c1ccc(-c2ccccc2)cc1` [ABD-0090, Pentyl (biphenyl-4-carboxylic acid) ester], which IC50 [2] is on record?
**A.** 45 µM

**Q.** Which IC50 [1] does the source give for `O=C(Cc1ccccc1)OCCCCOC(=O)Cc1ccccc1` [ABD-0014, 1,4-Butanediol di(phenylacetic acid)Ester] here?
**A.** > 100 µM

**Q.** `O=C(OCCCCO)c1ccc(F)c(F)c1` [ABD-0107, 1,4-Butanediol mono(3,4-difluorobenzoic acid)Ester] was tested. Which IC50 [2] did it give?
**A.** > 100 µM

**Q.** `O=C(OCCCCCCO)C(c1ccccc1)(c1ccccc1)c1ccccc1` [ABD-0031, 1,6-Hexandiol mono(triphenylacetic acid)Ester] was tested. Which IC50 [1] did it give?
**A.** 40 µM

**Q.** How did the IC50 [1] turn out when `CCCC(=O)OCCCCOC(=O)CCC` [ABD-0007, 1,4-Butanediol di(butanoic acid)Ester] was run?
**A.** > 100 µM

**Q.** For `O=C(OCCCCO)c1ccc(Cc2ccccc2)cc1` [ABD-0034, 1,4-Butanediol mono(4-benzylbenzoic acid)Ester], which “activity at 100 μM concentration” value [1] is on record?
**A.** little activity

**Q.** And the IC50 [1]?
**A.** > 100 µM

**Q.** How did the IC50 [2] turn out when `O=C(OCCCCBr)c1ccc(-c2ccccc2)cc1` [ABD-0086, 4-Bromobutyl (biphenyl-4-carboxylic acid) ester] was run?
**A.** > 100 µM

**Q.** How did the IC50 [1] turn out when `O=C(Cc1ccc(-c2ccccc2)cc1)OCCCO` [ABD-0041, 1,3-Propanediol mono(biphenyl-4-yl-acetic acid)Ester] was run?
**A.** 75 µM

**Q.** What does the source list for `COc1ccc(CC(=O)OCCCCO)cc1OC` [ABD-0033, 1,4-Butanediol mono(homoveratric acid)Ester]?
**A.** activity at 100 μM concentration [1]: little activity; IC50 [1]: > 100 µM

**Q.** For `O=C(OCCCCO)C(c1ccccc1)(c1ccccc1)c1ccccc1` [ABD-0028, 1,4-Butandiol mono(triphenylacetic acid)Ester], which “macrophage J774 viability” value [1] is on record?
**A.** more potent

**Q.** What about the IC50 [1] of the same molecule?
**A.** 20 µM

**Q.** What about the IC50 [2] of the same molecule?
**A.** 30 µM

**Q.** `O=C(OCCCCO)c1ccc(-c2ccccc2[N+](=O)[O-])cc1` [ABD-0098, 1,4-Butanediol mono(2′-nitro-biphenyl-4-carboxylic acid)Ester] was tested. Which IC50 [2] did it give?
**A.** 17 µM

**Q.** Which IC50 [2] does the source give for `O=C(OCCCCO)c1ccc(-c2ccc(F)cc2)cc1` [ABD-0100, 1,4-Butandiol mono(4′-fluoro-biphenyl-4-carboxylic acid)Ester] here?
**A.** 14 µM

**Q.** `O=C(OCCCCO)c1ccc(-c2ccccc2F)cc1` [ABD-0099, 1,4-Butanediol mono(2′-fluoro-biphenyl-4-carboxylic acid)Ester] was tested. Which IC50 [2] did it give?
**A.** 14 µM

**Q.** How did the IC50 [2] turn out when `COCCCCOC(=O)c1ccc(-c2ccccc2)cc1` [ABD-0050, 4-Methoxybutyl (biphenyl-4-carboxylic acid) ester] was run?
**A.** > 100 µM

**Q.** Which IC50 [2] does the source give for `O=C(OCCCCO)c1ccc(-c2ccc(O)cc2)cc1` [ABD-0072, 1,4-Butanediol mono(4′-hydroxy-biphenyl-4-carboxylic acid)Ester] here?
**A.** 45 µM

**Q.** `O=C(OCCCCOC(=O)c1c(F)c(F)c(F)c(F)c1F)c1c(F)c(F)c(F)c(F)c1F` [ABD-0085, 1,4-Butanediol di(pentafluorobenzoic acid)Ester] was tested. Which IC50 [2] did it give?
**A.** 4 µM

**Q.** With `O=C(OCCCCO)c1c(F)c(F)c(F)c(F)c1F` [ABD-0077, 1,4-Butanediol mono(pentafluorobenzoic acid)Ester] as the molecule, how does the IC50 [2] read?
**A.** 25 µM

**Q.** With `O=C(OCCCCOC(=O)C1CCCCC1)C1CCCCC1` [ABD-0019, 1,4-Butanediol di(cyclclohexanecarboxylic acid)Ester] as the molecule, how does the IC50 [1] read?
**A.** > 100 µM

**Q.** With `COc1ccc(-c2ccc(C(=O)OCCCCO)cc2)cc1` [ABD-0097, 1,4-Butanediol mono(4′-methoxy-biphenyl-4-carboxylic acid)Ester] as the molecule, how does the IC50 [2] read?
**A.** > 100 µM

**Q.** With `Cc1ccc(-c2ccc(C(=O)OCCCCO)cc2)cc1` [ABD-0070, 1,4-Butanediol mono(4′-methyl-biphenyl-4-carboxylic acid)Ester] as the molecule, how does the IC50 [2] read?
**A.** > 100 µM

**Q.** With `O=C(OCCCO)c1ccc(-c2ccccc2)cc1` [ABD-0057, 1,3-Propanediol mono(biphenyl-4-carboxylic acid)Ester] as the molecule, how does the IC50 [1] read?
**A.** > 100 µM

**Q.** With `Cc1ccc(-c2ccc(C(=O)OCCCCO)cc2)cc1C` [ABD-0089, 1,4-Butanediol mono(3′,4′-dimethyl-biphenyl-4-carboxylic acid)Ester] as the molecule, how does the IC50 [2] read?
**A.** 9 µM

**Q.** How did the IC50 [2] turn out when `O=C(OCCCCOC(=O)c1ccc(F)cc1F)c1ccc(F)cc1F` [ABD-0111, 1,4-Butanediol di(2,4-difluorobenzoic acid)Ester] was run?
**A.** > 100 µM

**Q.** With `O=C(OCCCCCO)c1ccc(-c2ccccc2)cc1` [ABD-0055, 1,5-Pentanediol mono(biphenyl-4-carboxylic acid)Ester] as the molecule, how does the IC50 [1] read?
**A.** 65 µM

**Q.** For `O=C(Cc1ccc(-c2ccccc2)cc1)OCCCCCCO` [ABD-0044, 1,6-Hexanediol mono(biphenyl-4-yl-acetic acid)Ester], which “macrophage J774 viability” value [1] is on record?
**A.** very active

**Q.** And the IC50 [1]?
**A.** 28 µM

**Q.** For `CC(C)Cc1ccc(C(C)C(=O)OCCCCCO)cc1` (stereo not drawn) [ABD-0038, 1,5-Pentanediol mono[2-(4-isobutylphenyl)Propionic acid]ester], which IC50 [1] is on record?
**A.** 68 µM
